Several values for one entry are separate records, joined by “and”; a condition that tells them apart may be missing. Identical values can stand only once.
Tested on: 857933-349-R-J2-PDC complex spheroid viability
Experiment: Anticancer human tumor 857933-349-R-J2-PDC patient-derived colon adenocarcinoma cell line growth inhibition [POLQ]
Settings: for viability, T/C: stronger effect = lower value
Protocol: Multicellular complex tumor spheroid response to Polymerase (POL) inhibitors (novobiocin, ART-558, RP6685) in combination with a variety of drugs and investigational agents in selected tumor cell lines
The POL inhibitors (novobiocin, ART-558, and RP6685) were evaluated both individually and in combination with standard of care and investigational anticancer small molecules within a complex spheroid model of solid tumors. . Complex spheroids include a stromal component modeled by human endothelial cells (HUVEC) and fibroblasts modeled by human mesenchymal stem cells (MSCs). The concentration ranges selected for each drug and investigational agent were based upon clinically achievable concentrations if the clinical Cmax of the agent was known.
Compounds. The drugs and investigational agents: novobiocin (NSC847541), ART-558 (NSC835418), RP-6685 (NSC848927), peposertib (NSC802822), ceralasertib (NSC780249), elimusertib (NSC800525), camonsertib (NSC841442), AZD-1390 (NSC803789), olaparib (NSC753686), talazoparib (NSC767125), rucaparib (NSC756644), sotorasib (NSC818433), MRTX-1133 (NSC836407), SN-38 (NSC673596), topotecan (NSC609699), epotoside (NSC141540), doxorubicin (NSC123127), gemcitabine (NSC613327), 5-fluorouracil (NSC19893), paclitaxel (NSC125973), vemurafenib (NSC761431), MSA-2 (NSC828583), SN-011 (NSC837082), adavosertib (NSC754352), prexasertib (NSC758257), carboplatin (NSC241240) and oxaliplatin (NSC266046), were obtained from the National Cancer Institute (NCI) Developmental Therapeutics Program Chemical Repository (21). The FDA-approved anticancer drug set is available from the Developmental Therapeutics Program at https://dtp.cancer.gov/organization/dscb/obtaining/. […] The stock solutions were prepared in dimethyl sulfoxide (DMSO, Sigma-Aldrich, St. Louis, MO, cat. D2650), except for the platinum compounds which were prepared in saline (Quality Biological, Gaithersburg, MD, cat. 114-055-101), at 800-fold the tested concentration and stored at -70 degrees C prior to their use. All drugs and investigational agents were tested over a range starting from a high concentration at or near the clinical Cmax and decreasing in half-log increments. If the clinical Cmax for an agent had not been determined, the highest concentration tested was 10 microM, except for SN-38, which was tested at a high concentration of 1 microM.
Cell Culture. All cells were maintained in an incubator at 37 degrees C and 5% CO2 with 95% humidity. The PDC lines were cultured according to standard operating procedures established by the NCI PDMR (https://pdmr.cancer.gov). Table 3 of the manuscript, lists the cell lines along with the number of the three cell types plated to form the mct-spheroids and media for tumor cell growth. After thawing, all PDC lines, except 997537-175-T-J1-PDC and 415267-285-R-J2-PDC, were cultured in Matrigel-coated flasks prepared with a working solution of 1X Ham's F-12 nutrient mix, without supplementation (Thermo Fisher Scientific, cat. 11765054), 100 U/mL penicillin-streptomycin (Thermo Fisher Scientific, cat. 15140122), and 2.5% Matrigel (Corning Inc., Corning, NY, cat. 354248) for the first three passages. The two PDC lines 997537-175-T-J1-PDC and 415267-285-R-J2-PDC were cultured on uncoated flasks. The 857933-349-R-J2-PDC line was cultured in 6C/Colon 1B media containing advanced DMEM/F-12 (Thermo Fisher Scientific, cat. 12634028), 10 mM HEPES (Thermo Fisher Scientific, cat. 15630080), 1X GlutaMAX supplement (Thermo Fisher Scientific, cat. 35050061), 0.1 mg/mL primocin (InvivoGen, San Diego, CA, cat. ant-pm-2), 10% defined fetal bovine serum, heat inactivated (HyClone Laboratories Inc., Logan, UT, cat. SH30070.03HI), 50% L-WRN conditioned media (ATCC, cat. CRL-3276), 1.25 mM N-Acetyl-L-cysteine (Sigma-Aldrich, cat. A9165), 10 mM nicotinamide (Sigma-Aldrich, cat. N0636), 1X B-27 supplement (Thermo Fisher Scientific, cat. 17504044), 1X N-2 supplement (Thermo Fisher Scientific, cat. […]
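Also: spheroids exposed to compounds for seven days before readout.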

Q: What does the source list for `COc1ccc([C@@H](O)c2cc(-c3ncnc4cc(N5CCOCC5)ccc34)c(F)cc2Cl)nn1`?
A: viability, T/C (compound 0.0316 µM): 97.4% and 82.2% and 96.7%; viability, T/C (compound 0.1 µM): 85.4% and 95.2% and 123%; viability, T/C (compound 0.316 µM): 85.5% and 99% and 89.7%; viability, T/C (compound 1 µM): 102% and 100% and 95.2%; viability, T/C (compound 3.16 µM): 84.8% and 82.1% and 79.2%; viability, T/C (compound 10 µM): 71.6% and 58.9% and 66%; IC50 (curve of compound): > 10000 nM

Q: What does the source list for `Nc1ccc(C#CCN(C(=O)Cc2ncc(C(F)(F)F)cc2C(F)(F)F)c2ccc(F)cc2)nn1`?
A: viability, T/C (compound 0.0316 µM): 97.7% [middle of 13 runs]; viability, T/C (compound 0.1 µM): 104% [middle of 13 runs]; viability, T/C (compound 0.316 µM): 102% [middle of 13 runs]; viability, T/C (compound 1 µM): 99.5% [middle of 13 runs]; viability, T/C (compound 10 µM): 99.5% [middle of 13 runs]; IC50 (compound alone, run of 01/19/2024): > 10000 nM

Q: `O=C(Nc1ccc(O)c(NS(=O)(=O)c2ccc(F)cc2)c1)c1ccc(-c2ccccc2)cc1` was tested. Which viability, T/C (compound 0.0316 µM) did it give?
A: The viability, T/C was 93.1% and 99.4% and 97.2%.

Q: And the viability, T/C (compound 0.1 µM)?
A: Its viability, T/C is 97.3% and 105% and 102%.

Q: What about the viability, T/C (compound 0.316 µM) of the same compound?
A: Its viability, T/C is 82.5% and 107% and 105%.

Q: What about the viability, T/C (compound 1 µM) of the same compound?
A: The viability, T/C was 94.7% and 94% and 82.6%.

Q: What about the viability, T/C (compound 3.16 µM) of the same compound?
A: The viability, T/C was 95.3% and 86.2% and 100%.

Q: And the viability, T/C (compound 10 µM)?
A: Its viability, T/C is 77.8% and 88.1% and 78.2%.

Q: What about the IC50 (curve of compound) of the same compound?
A: The IC50 was over 10000 nM.

Q: Which results are given for `CC(C)n1c(=O)n(C)c2cnc3cc(F)c(-c4ccc(OCCCN5CCCCC5)nc4)cc3c21` + COC1C(OC(N)=O)C(O)C(Oc2ccc3c(O)c(NC(=O)c4ccc(O)c(CC=C(C)C)c4)c(=O)oc3c2C)OC1(C)C?
A: IC50 (curve of first compound, second compound 0.0316 µM): > 10000 nM; IC50 (curve of first compound, second compound 0.1 µM): > 10000 nM; IC50 (curve of first compound, second compound 0.316 µM): > 10000 nM; IC50 (curve of first compound, second compound 1 µM): > 10000 nM; IC50 (curve of first compound, second compound 3.16 µM): > 10000 nM; IC50 (curve of first compound, second compound 10 µM): > 10000 nM; viability, T/C (second compound 0.0316 µM, first compound 0.0316 µM): 102%; viability, T/C (second compound 0.0316 µM, first compound 0.1 µM): 108%; viability, T/C (second compound 0.0316 µM, first compound 0.316 µM): 97.3%; viability, T/C (second compound 0.0316 µM, first compound 1 µM): 105%; viability, T/C (second compound 0.0316 µM, first compound 3.16 µM): 109%; viability, T/C (second compound 0.0316 µM, first compound 10 µM): 111%; viability, T/C (second compound 0.1 µM, first compound 0.0316 µM): 113%; viability, T/C (second compound 0.1 µM, first compound 0.1 µM): 118%; viability, T/C (second compound 0.1 µM, first compound 0.316 µM): 100%; viability, T/C (second compound 0.1 µM, first compound 1 µM): 95%; viability, T/C (second compound 0.1 µM, first compound 3.16 µM): 121%; viability, T/C (second compound 0.1 µM, first compound 10 µM): 100%; viability, T/C (second compound 0.316 µM, first compound 0.0316 µM): 87.2%; viability, T/C (second compound 0.316 µM, first compound 0.1 µM): 120%; viability, T/C (second compound 0.316 µM, first compound 0.316 µM): 93.1%; viability, T/C (second compound 0.316 µM, first compound 1 µM): 85.1%; viability, T/C (second compound 0.316 µM, first compound 3.16 µM): 84.1%; viability, T/C (second compound 0.316 µM, first compound 10 µM): 105%; viability, T/C (second compound 1 µM, first compound 0.0316 µM): 74.4%; viability, T/C (second compound 1 µM, first compound 0.1 µM): 110%; viability, T/C (second compound 1 µM, first compound 0.316 µM): 103%; viability, T/C (second compound 1 µM, first compound 1 µM): 98.3%; viability, T/C (second compound 1 µM, first compound 3.16 µM): 87.8%; viability, T/C (second compound 1 µM, first compound 10 µM): 122%; viability, T/C (second compound 3.16 µM, first compound 0.0316 µM): 110%; viability, T/C (second compound 3.16 µM, first compound 0.1 µM): 112%; viability, T/C (second compound 3.16 µM, first compound 0.316 µM): 111%; viability, T/C (second compound 3.16 µM, first compound 1 µM): 89%; viability, T/C (second compound 3.16 µM, first compound 3.16 µM): 122%; viability, T/C (second compound 3.16 µM, first compound 10 µM): 123%; viability, T/C (second compound 10 µM, first compound 0.0316 µM): 89.6%; viability, T/C (second compound 10 µM, first compound 0.1 µM): 115%; viability, T/C (second compound 10 µM, first compound 0.316 µM): 106%; viability, T/C (second compound 10 µM, first compound 1 µM): 104%; viability, T/C (second compound 10 µM, first compound 3.16 µM): 85.7%; viability, T/C (second compound 10 µM, first compound 10 µM): 114%

Q: What does the source list for `O=c1[nH]cc(F)c(=O)[nH]1`?
A: viability, T/C (compound 0.0316 µM): 98.7% and 89.7% and 53.3%; viability, T/C (compound 0.1 µM): 89.1% and 112% and 86.9%; viability, T/C (compound 0.316 µM): 114% and 97.8% and 96%; viability, T/C (compound 1 µM): 72.6% and 81.3% and 59.4%; viability, T/C (compound 3.16 µM): 45.8% and 37.1% and 40.2%; viability, T/C (compound 10 µM): 28.3% and 24.9% and 21.5%; IC50 (curve of compound): 2380 nM and 2250 nM and 1890 nM

Q: With `CCc1c2c(nc3ccc(O)cc13)-c1cc3c(c(=O)n1C2)COC(=O)[C@]3(O)CC` as the compound, how does the viability, T/C (compound 0.00316 µM) read?
A: The viability, T/C was 76.9% and 53.6% and 65.9%.

Q: What about the viability, T/C (compound 0.01 µM) of the same compound?
A: The viability, T/C was 60.1% and 67.4% and 65.8%.

Q: What about the viability, T/C (compound 0.0316 µM) of the same compound?
A: Its viability, T/C is 35.1% and 21.3% and 31.4%.

Q: And the viability, T/C (compound 0.1 µM)?
A: The viability, T/C was 22.3% and 16.2% and 23.3%.

Q: And the viability, T/C (compound 0.316 µM)?
A: Its viability, T/C is 17.8% and 10.6% and 15.8%.

Q: What about the viability, T/C (compound 1 µM) of the same compound?
A: The viability, T/C was 4.53% and 2.45% and 5.61%.

Q: And the IC50 (curve of compound)?
A: The IC50 was 15.6 nM and 13.6 nM and 16.5 nM.

Q: With `COc1cc2cc(C(=O)CCC(=O)O)sc2cc1OC` as the compound, how does the viability, T/C (compound 0.0316 µM) read?
A: The viability, T/C was 92.5% and 89% and 101%.

Q: What about the viability, T/C (compound 0.1 µM) of the same compound?
A: The viability, T/C was 88.6% and 95.5% and 91.5%.

Q: What about the viability, T/C (compound 0.316 µM) of the same compound?
A: The viability, T/C was 94.9% and 102% and 82.7%.

Q: What about the viability, T/C (compound 1 µM) of the same compound?
A: Its viability, T/C is 88.2% and 110% and 92.5%.

Q: And the viability, T/C (compound 3.16 µM)?
A: The viability, T/C was 102% and 111% and 116%.

Q: What about the viability, T/C (compound 10 µM) of the same compound?
A: Its viability, T/C is 84.1% and 95% and 89.9%.

Q: What about the IC50 (curve of compound) of the same compound?
A: Its IC50 is over 10000 nM.

Q: What does the source list for `C=CCn1c(=O)c2cnc(Nc3ccc(N4CCN(C)CC4)cc3)nc2n1-c1cccc(C(C)(C)O)n1`?
A: viability, T/C (compound 0.00316 µM): 99.5% and 94.6% and 95.5%; viability, T/C (compound 0.01 µM): 72.9% and 104% and 93.5%; viability, T/C (compound 0.0316 µM): 84.6% and 98.7% and 93.5%; viability, T/C (compound 0.1 µM): 94.9% and 107% and 102%; viability, T/C (compound 0.316 µM): 109% and 102% (2×); viability, T/C (compound 1 µM): 66.4% and 73.5% and 82.9%; IC50 (curve of compound): > 1000 nM

Source: PubChem BioAssay AID1963836 (Molecular Pharmacology Branch, DTP, NCI, 2024)
